Source: patent US20030105095A1 (CHEIL JEDANG Corporation, priority 2001, published 2003)

How the values were obtained:
cyclooxygenase-1 = molecular target: T1, cyclooxygenase-1 (Mus musculus, UniProt P22437); test: Cyclooxygenase-1 inhibition in mouse peritoneal macrophages (PGE2 ELISA); type: cell-based
T1 construct: endogenous in cells; host or cells: primary mouse peritoneal macrophages (unstimulated)
T1 sequence (P22437 27-602): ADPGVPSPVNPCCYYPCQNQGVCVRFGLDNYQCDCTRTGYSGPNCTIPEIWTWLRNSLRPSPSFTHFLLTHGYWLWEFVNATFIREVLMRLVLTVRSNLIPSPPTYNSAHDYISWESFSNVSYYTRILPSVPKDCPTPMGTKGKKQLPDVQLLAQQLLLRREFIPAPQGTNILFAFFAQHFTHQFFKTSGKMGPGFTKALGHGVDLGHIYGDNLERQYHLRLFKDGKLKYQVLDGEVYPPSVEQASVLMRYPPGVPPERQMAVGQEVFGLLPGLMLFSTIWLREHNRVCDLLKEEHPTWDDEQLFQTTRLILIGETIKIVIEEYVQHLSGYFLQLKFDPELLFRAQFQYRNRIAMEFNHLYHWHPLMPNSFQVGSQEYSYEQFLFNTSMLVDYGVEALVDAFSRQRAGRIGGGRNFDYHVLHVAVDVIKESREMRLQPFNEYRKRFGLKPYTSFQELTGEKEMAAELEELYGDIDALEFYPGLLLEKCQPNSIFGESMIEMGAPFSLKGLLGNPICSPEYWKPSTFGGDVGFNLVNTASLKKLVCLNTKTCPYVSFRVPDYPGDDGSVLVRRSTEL
Experimental: First of all, the cyclooxygenase-1 was examined through the following procedure.
(§1) Peritoneal fluid in which macrophages were suspended was extracted from a mouse peritoneal cavity and centrifuged at 4° C., 1,000 rpm for 2 minutes. Then, the supernatant was removed, suspended using 20 ml of incomplete RPMI medium [including PC/SM (penicilin/streptomycin)] and again centrifuged under the same condition. […] Then, the cell number was calculated with the hemocytometer and adjusted to reach 1×10^6 cells/ml of cell concentration in the final cell suspension. The resulting suspension was poured into each well of 96-well plate and left with the incubator at 37° C. in 5% CO2 for about 2 hours in order to attach macrophages. […] The resulting cell was cultivated with the incubator at 37° C. in 5% CO2 for about 12˜16 hours. Then, arachidonic acid was added, adjusting to 10 μM of a final concentration and incubated at 37° C. for more 10 minutes and the supernatant of the reacted solution (˜180 μl) was recovered to finish the reaction.

cyclooxygenase-2 = molecular target: T2, cyclooxygenase-2 (Mus musculus, UniProt Q05769); test: Cyclooxygenase-2 inhibition in aspirin-treated, LPS-induced mouse peritoneal macrophages (PGE2 ELISA); type: cell-based
T2 construct: blended with 3% FBS-RPMI 1640 medium containing 10 μg/ml of LPS in each well; endogenous in cells; host or cells: primary mouse peritoneal macrophages, pretreated with 500 μM aspirin and induced with LPS
T2 sequence (Q05769 18-604): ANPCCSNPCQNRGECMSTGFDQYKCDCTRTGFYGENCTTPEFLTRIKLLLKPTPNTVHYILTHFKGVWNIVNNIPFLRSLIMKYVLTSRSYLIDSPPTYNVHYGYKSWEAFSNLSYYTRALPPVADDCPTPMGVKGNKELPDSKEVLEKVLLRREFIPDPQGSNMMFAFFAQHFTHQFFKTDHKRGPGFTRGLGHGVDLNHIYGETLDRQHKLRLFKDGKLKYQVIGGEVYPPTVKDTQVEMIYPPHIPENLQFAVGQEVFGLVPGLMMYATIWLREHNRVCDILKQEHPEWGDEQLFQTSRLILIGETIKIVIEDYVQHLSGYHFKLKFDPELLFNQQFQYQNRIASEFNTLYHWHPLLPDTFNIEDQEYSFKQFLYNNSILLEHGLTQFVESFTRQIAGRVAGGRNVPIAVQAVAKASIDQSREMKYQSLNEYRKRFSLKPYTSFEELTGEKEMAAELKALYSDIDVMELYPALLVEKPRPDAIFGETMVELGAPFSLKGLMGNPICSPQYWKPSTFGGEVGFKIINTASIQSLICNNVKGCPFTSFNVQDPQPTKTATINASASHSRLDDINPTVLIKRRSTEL
Experimental: Second, the cyclooxygenase-2 was examined through the following procedure.
as §1, with “RPMI medium [PC/SM (penicilin/streptomycin)] and” for “RPMI medium [including PC/SM (penicilin/streptomycin)] and”, “suspension was treated with aspirin, adjusting 500 μM of final concentration and poured into” for “suspension was poured into”, “96-well plate in 100 μl respectively. Again, it was left with” for “96-well plate and left with”

Row | Structure (SMILES) | Inhibitory effects of cyclooxygenase (COX): COX-1 (cyclooxygenase-1; 3 μM) | Inhibitory effects of cyclooxygenase (COX): COX-1 (cyclooxygenase-1; 10 μM) | Inhibitory effects of cyclooxygenase (COX): COX-1 (cyclooxygenase-1; 30 μM) | Inhibitory effects of cyclooxygenase (COX): COX-2 (cyclooxygenase-2; 30 nM) | Inhibitory effects of cyclooxygenase (COX): COX-2 (cyclooxygenase-2; 100 nM) | Inhibitory effects of cyclooxygenase (COX): COX-2 (cyclooxygenase-2; 300 nM)
1 | COc1ccc(-c2ccc(S(C)(=O)=O)cc2)cc1OC [Example 1, 4′-methanesulfonyl-3,4-dimethoxy-biphenyl] | 44.4 % inhibition | 50.5 % inhibition | 64.7 % inhibition | 46.2 % inhibition | 50.7 % inhibition | 59.7 % inhibition
2 | CCOc1ccc(-c2ccc(S(C)(=O)=O)cc2)cc1OCC [Example 2, 4′-methanesulfonyl-3,4-diethoxy-biphenyl] | 61.5 % inhibition | 70.5 % inhibition | 77.1 % inhibition | 55.2 % inhibition | 60.5 % inhibition | 76.5 % inhibition
3 | CCCOc1ccc(-c2ccc(S(C)(=O)=O)cc2)cc1OCCC [Example 3, 4′-methanesulfonyl-3,4-dipropyloxy-biphenyl] | 9.4 % inhibition | 10.1 % inhibition | 23.4 % inhibition | 5.0 % inhibition | 5.5 % inhibition | 10.1 % inhibition
4 | CC(C)Oc1ccc(-c2ccc(S(C)(=O)=O)cc2)cc1OC(C)C [Example 4, 4′-methanesulfonyl-3,4-diisopropyloxy-biphenyl] | 58.2 % inhibition | 70.4 % inhibition | 78.4 % inhibition | ˜0 % inhibition | ˜0 % inhibition | ˜0 % inhibition
5 | CS(=O)(=O)c1ccc(-c2ccc(OC3CC3)c(OC3CC3)c2)cc1 [Example 5, 4′-methanesulfonyl-3,4-dicyclopropyloxy-biphenyl] | 50.3 % inhibition | 58.4 % inhibition | 60.4 % inhibition | 30.2 % inhibition | 33.3 % inhibition | 46.5 % inhibition
6 | CCCCOc1ccc(-c2ccc(S(C)(=O)=O)cc2)cc1OCCCC [Example 6, 4′-methanesulfonyl-3,4-dibutyloxy-biphenyl] | 14.7 % inhibition | 20.9 % inhibition | 22.7 % inhibition | ˜0 % inhibition | ˜0 % inhibition | ˜0 % inhibition
7 | CS(=O)(=O)c1ccc(-c2ccc(OCc3ccccc3)c(OCc3ccccc3)c2)cc1 [Example 7, 4′-methanesulfonyl-3,4-dibenzyloxy-biphenyl] | 36.8 % inhibition | 40.5 % inhibition | 41.1 % inhibition | 47.6 % inhibition | 60.3 % inhibition | 68.4 % inhibition
8 | CS(=O)(=O)c1ccc(-c2ccc(OC3CCCC3)c(OC3CCCC3)c2)cc1 [Example 8, 4′-methanesulfonyl-3,4-dicyclopentyloxy-biphenyl] | 29.7 % inhibition | 40.2 % inhibition | 49.7 % inhibition | 27.4 % inhibition | 42.7 % inhibition | 54.7 % inhibition
9 | CCCCOc1cc(-c2ccc(S(C)(=O)=O)cc2)ccc1OC(C)C [Example 9, 3-butoxy-4-isopropoxy-4′-methanesulfonyl-biphenyl] | 49.8 % inhibition | 66.4 % inhibition | 70.8 % inhibition | 44.2 % inhibition | 59.8 % inhibition | 70.4 % inhibition
